Broadly, the GI50 is the concentration at which growth is held to half of that of the control. The Ki is the dissociation constant of the complex between target and ligand, obtained from inhibition or displacement.

The nature of experiment [1]: Antiproliferative activity against human EB3 cells assessed as growth inhibition incubated for 3 days by MTT assay. The format is functional. The conditions noted are these: EB-3, 72 h.
The subject of another experiment is EB-3. The conditions noted are these: Homo sapiens, at 10 µM.
In the next experiment the target is Histone deacetylase 1 (Homo sapiens, UniProt Q13547). Description: Inhibition of human recombinant HDAC1 using Ac-Leu-Gly-Lys (Ac)-AMC substrate incubated for 30 mins by fluorescence assay.
The target of a further experiment is Histone deacetylase 2 (Homo sapiens, UniProt Q92769). The experiment can be described thus: Inhibition of human recombinant HDAC2 using Ac-Leu-Gly-Lys (Ac)-AMC substrate incubated for 30 mins by fluorescence assay.
In experiment [2] the target is T1, Histone deacetylase 3/Nuclear receptor corepressor 2 (HDAC3/NCoR2) (Homo sapiens, UniProt O15379). Description: Inhibition of human recombinant HDAC3/NCoR2 using Ac-Leu-Gly-Lys (Ac)-AMC substrate incubated for 30 mins by fluorescence assay. In kind it is protein-complex assay.
Experiment [3] has as its target T2, Polyamine deacetylase HDAC10 (Homo sapiens, UniProt Q969S8).
T2 sequence (Q969S8 whole entry): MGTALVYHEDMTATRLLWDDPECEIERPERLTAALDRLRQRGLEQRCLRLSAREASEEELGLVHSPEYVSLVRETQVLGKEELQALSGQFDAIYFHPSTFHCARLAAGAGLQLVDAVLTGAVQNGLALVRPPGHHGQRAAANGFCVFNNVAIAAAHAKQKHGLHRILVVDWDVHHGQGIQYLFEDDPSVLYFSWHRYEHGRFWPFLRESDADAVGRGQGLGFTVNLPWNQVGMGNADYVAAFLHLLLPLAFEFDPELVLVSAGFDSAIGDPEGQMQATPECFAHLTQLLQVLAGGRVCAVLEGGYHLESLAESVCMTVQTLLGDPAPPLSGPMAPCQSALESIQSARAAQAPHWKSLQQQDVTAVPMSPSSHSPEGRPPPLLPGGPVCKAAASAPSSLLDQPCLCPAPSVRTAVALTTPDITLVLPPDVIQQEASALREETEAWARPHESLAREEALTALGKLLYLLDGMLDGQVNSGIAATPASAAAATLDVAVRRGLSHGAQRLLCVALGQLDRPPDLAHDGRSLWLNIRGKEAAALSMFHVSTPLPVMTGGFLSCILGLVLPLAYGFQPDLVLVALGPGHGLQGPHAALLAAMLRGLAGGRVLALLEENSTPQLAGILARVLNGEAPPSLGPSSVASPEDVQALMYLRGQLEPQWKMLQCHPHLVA
The experiment can be described thus: Inhibition of human recombinant HDAC10 using Ac-Arg-His-Lys (Ac)-Lys (Ac)-AMC substrate incubated for 30 mins by fluorescence assay.

The target in a further experiment is T3, Histone deacetylase 11 (Homo sapiens, UniProt Q96DB2).
T3 sequence (Q96DB2 whole entry): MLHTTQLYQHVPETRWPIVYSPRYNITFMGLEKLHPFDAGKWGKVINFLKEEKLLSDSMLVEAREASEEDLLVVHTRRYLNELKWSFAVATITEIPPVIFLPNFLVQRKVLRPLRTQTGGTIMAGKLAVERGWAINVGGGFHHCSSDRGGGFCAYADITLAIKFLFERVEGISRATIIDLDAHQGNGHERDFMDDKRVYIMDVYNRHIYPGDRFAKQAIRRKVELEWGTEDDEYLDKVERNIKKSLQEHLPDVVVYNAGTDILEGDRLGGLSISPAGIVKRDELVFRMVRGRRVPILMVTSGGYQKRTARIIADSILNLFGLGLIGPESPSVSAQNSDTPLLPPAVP
Description: Inhibition of human recombinant HDAC11 using Ac-Leu-Gly-Lys (Ac)-AMC substrate incubated for 30 mins by fluorescence assay.

For experiment [4], the target named is T1, Histone deacetylase 3/Nuclear receptor corepressor 2 (HDAC3/NCoR2). The experiment can be described thus: Inhibition of human recombinant HDAC3/NCoR2 using Ac-Leu-Gly-Lys (Ac)-AMC substrate incubated for 45 mins by fluorescence assay based continuous assay protocol. The format is protein-complex assay.
For experiment [5], the target named is T4, Histone deacetylase 8 (Homo sapiens) (UniProt Q9BY41).
T4 sequence (whole entry): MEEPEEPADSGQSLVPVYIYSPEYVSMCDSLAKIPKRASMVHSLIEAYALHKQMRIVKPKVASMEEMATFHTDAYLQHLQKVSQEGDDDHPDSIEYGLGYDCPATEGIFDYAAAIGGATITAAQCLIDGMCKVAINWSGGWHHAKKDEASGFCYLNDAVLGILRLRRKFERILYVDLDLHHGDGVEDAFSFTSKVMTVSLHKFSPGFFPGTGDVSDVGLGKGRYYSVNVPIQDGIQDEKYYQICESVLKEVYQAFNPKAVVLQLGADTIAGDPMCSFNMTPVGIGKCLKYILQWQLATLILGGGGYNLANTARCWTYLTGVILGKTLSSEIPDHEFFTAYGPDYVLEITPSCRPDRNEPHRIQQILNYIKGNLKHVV
The experiment can be described thus: Inhibition of human recombinant HDAC8 using Ac-Leu-Gly-Lys (Tfa)-AMC substrate incubated for 30 mins by fluorescence assay.

The target of experiment [6] is Histone deacetylase 4 (Homo sapiens) (UniProt P56524). Description: Inhibition of human recombinant HDAC4 using Ac-Leu-Gly-Lys (Tfa)-AMC substrate incubated for 30 mins by fluorescence assay.
In experiment [7] the target is Histone deacetylase 5 (Homo sapiens) (UniProt Q9UQL6). Description: Inhibition of human recombinant HDAC5 using Ac-Leu-Gly-Lys (Tfa)-AMC substrate incubated for 30 mins by fluorescence assay.
Experiment [8] deals with T5, Histone deacetylase 7 (Homo sapiens) (UniProt Q8WUI4).
T5 sequence (whole entry): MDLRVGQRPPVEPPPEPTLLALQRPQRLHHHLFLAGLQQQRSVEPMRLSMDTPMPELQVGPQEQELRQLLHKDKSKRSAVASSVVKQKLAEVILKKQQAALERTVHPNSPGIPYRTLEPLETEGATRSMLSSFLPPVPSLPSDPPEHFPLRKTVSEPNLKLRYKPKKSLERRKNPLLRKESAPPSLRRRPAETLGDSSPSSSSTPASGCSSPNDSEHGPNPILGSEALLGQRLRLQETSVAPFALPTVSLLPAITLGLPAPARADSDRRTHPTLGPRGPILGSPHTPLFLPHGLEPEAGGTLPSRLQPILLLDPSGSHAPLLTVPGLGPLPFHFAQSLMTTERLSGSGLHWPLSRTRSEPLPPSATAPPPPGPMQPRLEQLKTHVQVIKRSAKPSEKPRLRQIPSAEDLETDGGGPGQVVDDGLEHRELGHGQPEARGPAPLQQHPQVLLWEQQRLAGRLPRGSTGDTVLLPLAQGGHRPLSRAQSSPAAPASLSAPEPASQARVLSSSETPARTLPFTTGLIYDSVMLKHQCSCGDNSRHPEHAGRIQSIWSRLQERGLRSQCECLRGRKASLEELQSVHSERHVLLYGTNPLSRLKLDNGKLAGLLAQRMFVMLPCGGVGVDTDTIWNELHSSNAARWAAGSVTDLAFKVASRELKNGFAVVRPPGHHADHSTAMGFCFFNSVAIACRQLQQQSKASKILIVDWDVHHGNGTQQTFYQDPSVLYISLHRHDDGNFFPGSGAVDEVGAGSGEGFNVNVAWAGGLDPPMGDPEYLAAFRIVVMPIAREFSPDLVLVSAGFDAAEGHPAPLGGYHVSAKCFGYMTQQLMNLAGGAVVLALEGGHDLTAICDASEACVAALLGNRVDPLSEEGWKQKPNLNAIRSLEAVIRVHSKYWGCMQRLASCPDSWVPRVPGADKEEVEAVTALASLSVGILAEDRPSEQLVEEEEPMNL
Description: Inhibition of human recombinant HDAC7 using Ac-Leu-Gly-Lys (Tfa)-AMC substrate incubated for 30 mins by fluorescence assay.

Experiment [9] addresses Histone deacetylase 9 (Homo sapiens) (UniProt Q9UKV0). The experiment can be described thus: Inhibition of human recombinant HDAC9 using Ac-Leu-Gly-Lys (Tfa)-AMC substrate incubated for 30 mins by fluorescence assay.
Experiment [10] has as its target T6, Protein deacetylase HDAC6 (Homo sapiens) (UniProt Q9UBN7).
T6 sequence (whole entry): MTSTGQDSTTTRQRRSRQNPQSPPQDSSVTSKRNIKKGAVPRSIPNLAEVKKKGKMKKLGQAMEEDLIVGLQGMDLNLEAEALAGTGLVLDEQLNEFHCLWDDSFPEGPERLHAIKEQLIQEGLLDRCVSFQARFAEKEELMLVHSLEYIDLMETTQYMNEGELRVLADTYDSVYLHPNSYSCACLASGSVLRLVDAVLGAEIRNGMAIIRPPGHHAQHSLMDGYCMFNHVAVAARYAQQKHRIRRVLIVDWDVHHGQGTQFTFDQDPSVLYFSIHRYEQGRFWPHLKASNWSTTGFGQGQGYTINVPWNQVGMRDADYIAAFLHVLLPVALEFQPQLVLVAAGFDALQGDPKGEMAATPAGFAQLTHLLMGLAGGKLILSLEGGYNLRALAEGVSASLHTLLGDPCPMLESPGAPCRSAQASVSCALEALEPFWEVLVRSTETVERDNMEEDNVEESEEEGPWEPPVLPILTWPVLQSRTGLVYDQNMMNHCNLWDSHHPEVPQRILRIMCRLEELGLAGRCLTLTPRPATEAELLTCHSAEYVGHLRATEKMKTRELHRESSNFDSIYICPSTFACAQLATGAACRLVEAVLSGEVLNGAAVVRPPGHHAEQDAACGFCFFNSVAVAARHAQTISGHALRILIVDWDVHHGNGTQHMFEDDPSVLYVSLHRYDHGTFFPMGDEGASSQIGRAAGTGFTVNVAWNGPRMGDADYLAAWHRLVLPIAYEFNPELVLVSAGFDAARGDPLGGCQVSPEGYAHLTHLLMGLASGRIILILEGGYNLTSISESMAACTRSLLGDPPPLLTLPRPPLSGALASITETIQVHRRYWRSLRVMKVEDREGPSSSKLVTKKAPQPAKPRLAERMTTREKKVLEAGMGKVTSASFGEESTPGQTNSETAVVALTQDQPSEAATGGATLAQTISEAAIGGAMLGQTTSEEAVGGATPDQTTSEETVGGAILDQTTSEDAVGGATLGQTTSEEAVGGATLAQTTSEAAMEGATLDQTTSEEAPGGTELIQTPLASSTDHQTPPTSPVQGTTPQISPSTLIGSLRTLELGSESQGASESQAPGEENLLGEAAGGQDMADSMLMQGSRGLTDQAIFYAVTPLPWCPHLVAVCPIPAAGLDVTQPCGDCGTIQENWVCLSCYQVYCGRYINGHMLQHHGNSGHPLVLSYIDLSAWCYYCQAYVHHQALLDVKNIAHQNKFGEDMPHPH
Description: Inhibition of human recombinant HDAC6 using Ac-Leu-Gly-Lys (Ac)-AMC substrate incubated for 30 mins by fluorescence assay.

Each structure is given as a SMILES string. Calls of active or inactive are those of the source. The rule behind the calls is not given here. Where only a bound is given, the exact number is not on record here.

T1 sequence (O15379 whole entry): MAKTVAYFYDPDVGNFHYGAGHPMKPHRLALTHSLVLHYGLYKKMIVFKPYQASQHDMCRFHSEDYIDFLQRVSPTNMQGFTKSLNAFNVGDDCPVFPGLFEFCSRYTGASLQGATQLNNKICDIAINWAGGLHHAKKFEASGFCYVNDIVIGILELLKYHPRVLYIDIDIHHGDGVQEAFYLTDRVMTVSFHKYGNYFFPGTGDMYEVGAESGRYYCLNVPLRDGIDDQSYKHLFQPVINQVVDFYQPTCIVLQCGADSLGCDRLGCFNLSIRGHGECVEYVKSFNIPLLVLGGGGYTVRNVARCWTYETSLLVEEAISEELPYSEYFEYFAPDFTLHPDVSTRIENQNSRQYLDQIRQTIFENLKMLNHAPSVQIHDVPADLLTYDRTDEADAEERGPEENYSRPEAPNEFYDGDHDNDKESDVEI
T1 sequence (Q9Y618 whole entry, further chain): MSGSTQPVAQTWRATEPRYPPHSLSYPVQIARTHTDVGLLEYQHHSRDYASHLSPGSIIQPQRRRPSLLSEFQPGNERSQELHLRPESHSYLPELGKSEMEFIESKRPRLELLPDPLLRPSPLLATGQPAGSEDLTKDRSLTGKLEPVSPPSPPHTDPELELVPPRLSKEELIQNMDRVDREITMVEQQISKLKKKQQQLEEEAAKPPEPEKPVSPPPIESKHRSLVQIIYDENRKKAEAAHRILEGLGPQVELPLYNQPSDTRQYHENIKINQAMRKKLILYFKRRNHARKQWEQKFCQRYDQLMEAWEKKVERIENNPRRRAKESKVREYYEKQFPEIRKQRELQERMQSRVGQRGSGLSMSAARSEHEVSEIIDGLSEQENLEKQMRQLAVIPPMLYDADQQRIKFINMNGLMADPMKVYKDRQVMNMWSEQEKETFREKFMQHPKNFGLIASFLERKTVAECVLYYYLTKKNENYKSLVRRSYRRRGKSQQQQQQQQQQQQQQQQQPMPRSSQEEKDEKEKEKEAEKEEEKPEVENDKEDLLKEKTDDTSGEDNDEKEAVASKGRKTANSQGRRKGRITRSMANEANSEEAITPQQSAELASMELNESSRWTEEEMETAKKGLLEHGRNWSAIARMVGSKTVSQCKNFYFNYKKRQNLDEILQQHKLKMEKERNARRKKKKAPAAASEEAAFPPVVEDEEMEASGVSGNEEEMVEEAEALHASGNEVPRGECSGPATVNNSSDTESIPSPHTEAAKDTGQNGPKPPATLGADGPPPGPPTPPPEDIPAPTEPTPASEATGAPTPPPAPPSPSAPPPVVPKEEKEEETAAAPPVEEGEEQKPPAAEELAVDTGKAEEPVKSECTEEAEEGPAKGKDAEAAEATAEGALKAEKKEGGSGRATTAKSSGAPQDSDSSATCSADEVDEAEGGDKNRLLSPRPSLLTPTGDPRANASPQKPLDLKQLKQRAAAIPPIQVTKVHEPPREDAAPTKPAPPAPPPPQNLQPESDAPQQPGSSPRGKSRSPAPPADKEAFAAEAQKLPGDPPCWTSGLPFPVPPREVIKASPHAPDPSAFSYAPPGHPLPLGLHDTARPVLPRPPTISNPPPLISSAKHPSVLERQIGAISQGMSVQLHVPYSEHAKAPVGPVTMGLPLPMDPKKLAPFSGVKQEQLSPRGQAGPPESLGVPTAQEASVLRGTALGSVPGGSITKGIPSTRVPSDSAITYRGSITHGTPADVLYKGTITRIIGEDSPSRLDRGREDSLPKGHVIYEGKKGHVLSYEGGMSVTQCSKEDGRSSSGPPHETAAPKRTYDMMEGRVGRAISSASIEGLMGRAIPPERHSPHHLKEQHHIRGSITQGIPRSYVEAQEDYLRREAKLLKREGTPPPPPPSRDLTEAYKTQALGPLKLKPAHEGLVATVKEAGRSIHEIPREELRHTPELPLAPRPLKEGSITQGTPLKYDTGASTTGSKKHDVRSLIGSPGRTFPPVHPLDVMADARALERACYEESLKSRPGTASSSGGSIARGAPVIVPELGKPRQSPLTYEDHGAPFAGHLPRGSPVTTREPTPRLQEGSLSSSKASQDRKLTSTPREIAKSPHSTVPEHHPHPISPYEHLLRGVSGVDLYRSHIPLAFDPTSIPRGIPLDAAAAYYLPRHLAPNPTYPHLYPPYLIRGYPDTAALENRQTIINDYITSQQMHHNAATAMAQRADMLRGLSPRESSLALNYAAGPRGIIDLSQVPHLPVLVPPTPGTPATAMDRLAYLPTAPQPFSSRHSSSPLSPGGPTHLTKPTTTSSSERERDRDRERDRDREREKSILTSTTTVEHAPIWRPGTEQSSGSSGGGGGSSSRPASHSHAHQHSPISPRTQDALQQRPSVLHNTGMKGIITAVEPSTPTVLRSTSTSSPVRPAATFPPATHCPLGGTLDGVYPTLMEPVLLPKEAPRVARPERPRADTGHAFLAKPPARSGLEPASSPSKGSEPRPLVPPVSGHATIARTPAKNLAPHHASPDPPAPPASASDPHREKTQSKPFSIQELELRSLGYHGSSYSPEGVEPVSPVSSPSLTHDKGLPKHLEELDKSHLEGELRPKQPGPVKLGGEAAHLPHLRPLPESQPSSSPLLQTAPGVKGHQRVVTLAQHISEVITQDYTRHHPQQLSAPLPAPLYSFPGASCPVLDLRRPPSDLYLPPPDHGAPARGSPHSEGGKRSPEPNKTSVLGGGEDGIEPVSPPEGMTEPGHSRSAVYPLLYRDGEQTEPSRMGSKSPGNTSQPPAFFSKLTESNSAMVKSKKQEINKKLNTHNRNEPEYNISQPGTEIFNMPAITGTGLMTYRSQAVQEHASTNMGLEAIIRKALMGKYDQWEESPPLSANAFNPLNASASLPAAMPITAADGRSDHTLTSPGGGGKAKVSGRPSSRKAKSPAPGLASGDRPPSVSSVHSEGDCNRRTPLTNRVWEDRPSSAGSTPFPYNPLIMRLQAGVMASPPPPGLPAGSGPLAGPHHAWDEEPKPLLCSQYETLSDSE
Sequence of Histone deacetylase 2 (Q92769 whole entry): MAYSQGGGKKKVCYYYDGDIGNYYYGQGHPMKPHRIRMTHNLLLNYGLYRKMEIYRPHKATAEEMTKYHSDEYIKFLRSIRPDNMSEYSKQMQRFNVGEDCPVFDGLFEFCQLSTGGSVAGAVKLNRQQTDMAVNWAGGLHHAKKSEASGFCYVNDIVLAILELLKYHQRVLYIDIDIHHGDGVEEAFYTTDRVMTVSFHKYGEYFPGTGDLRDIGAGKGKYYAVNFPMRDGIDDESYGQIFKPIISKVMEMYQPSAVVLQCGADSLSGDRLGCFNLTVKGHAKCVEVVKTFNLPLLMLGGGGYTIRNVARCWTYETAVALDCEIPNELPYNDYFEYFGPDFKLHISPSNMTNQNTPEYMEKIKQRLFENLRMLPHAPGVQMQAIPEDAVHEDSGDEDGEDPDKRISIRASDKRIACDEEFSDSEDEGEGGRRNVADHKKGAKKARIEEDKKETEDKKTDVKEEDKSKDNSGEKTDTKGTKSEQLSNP
Sequence of Histone deacetylase 1 (Q13547 whole entry): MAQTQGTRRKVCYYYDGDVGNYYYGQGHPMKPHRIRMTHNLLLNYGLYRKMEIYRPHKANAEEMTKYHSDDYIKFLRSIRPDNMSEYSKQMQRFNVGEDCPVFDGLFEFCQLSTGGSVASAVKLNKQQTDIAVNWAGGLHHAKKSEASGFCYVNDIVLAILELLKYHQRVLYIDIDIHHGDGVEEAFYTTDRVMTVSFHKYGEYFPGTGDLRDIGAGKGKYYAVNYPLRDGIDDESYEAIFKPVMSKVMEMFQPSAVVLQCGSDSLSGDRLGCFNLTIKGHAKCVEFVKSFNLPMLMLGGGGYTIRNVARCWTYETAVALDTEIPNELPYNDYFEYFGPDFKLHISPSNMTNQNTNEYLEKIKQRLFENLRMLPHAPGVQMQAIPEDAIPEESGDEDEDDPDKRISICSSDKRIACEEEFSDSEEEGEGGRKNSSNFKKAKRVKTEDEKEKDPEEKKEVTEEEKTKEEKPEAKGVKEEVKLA
Sequence of Histone deacetylase 9 (Homo sapiens) (Q9UKV0 whole entry): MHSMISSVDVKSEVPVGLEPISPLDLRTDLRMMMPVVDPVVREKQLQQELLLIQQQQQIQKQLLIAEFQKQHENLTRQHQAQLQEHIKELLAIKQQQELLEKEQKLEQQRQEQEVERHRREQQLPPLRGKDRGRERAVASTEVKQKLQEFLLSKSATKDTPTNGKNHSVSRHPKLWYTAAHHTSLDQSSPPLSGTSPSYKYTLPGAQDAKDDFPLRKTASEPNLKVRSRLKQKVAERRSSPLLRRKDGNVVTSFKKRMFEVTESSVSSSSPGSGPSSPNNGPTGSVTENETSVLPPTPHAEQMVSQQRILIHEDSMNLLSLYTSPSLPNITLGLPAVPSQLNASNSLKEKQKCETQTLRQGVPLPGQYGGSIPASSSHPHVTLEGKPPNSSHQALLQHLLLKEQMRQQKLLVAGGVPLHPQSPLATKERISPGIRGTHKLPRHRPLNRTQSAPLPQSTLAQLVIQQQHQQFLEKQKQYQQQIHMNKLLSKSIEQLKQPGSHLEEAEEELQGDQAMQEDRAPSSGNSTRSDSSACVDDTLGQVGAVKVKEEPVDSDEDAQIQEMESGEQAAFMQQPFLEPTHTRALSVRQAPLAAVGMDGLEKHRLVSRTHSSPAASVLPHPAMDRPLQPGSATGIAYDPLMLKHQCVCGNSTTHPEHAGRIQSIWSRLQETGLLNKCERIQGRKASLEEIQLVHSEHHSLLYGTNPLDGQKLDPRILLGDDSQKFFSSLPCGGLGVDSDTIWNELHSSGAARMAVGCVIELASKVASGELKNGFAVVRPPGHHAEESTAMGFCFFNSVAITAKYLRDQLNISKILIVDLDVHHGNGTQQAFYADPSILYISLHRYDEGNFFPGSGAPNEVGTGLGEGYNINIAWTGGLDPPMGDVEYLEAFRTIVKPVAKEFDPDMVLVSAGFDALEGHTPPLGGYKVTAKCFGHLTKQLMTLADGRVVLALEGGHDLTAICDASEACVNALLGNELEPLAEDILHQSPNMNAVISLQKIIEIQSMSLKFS
Description for EB-3: Antiproliferative activity against human EB3 cells at 10 uM incubated for 3 days by MTT assay

`CC(C)[C@H]1NC(=O)[C@@H](C)[C@@H](C/C=C\CCC(N)=O)NC(=O)[C@@H](Cc2ccc(O)cc2)NC(=O)[C@@H](C)NC1=O` [AZUMAMIDE B]: the GI50 in experiment [1] was above 50 µM. For the same compound, the inhibition entry in the experiment on EB-3 is “inactive”.
As to `CC(C)[C@H]1NC(=O)[C@@H](C)[C@@H](C/C=C\CCC(=O)O)NC(=O)[C@@H](Cc2ccc(O)cc2)NC(=O)[C@@H](C)NC1=O` [AZUMAMIDE C], the inhibition constant Ki on Histone deacetylase 1 was 0.02 µM; on Histone deacetylase 2, 0.01 µM; in [2], 0.018 µM; in experiment [3], 0.02 µM; on Histone deacetylase 11, 0.06 µM; in [4], 0.00967 µM. The GI50 in experiment [1] is above 25 µM. In the experiment with EB-3, the inhibition result is “inactive”.
As to `CCC[C@H]1NC(=O)[C@@H](Cc2ccc(O)cc2)NC(=O)[C@@H](C)NC(=O)[C@@H](C(C)C)NC(=O)[C@H]1C`, the inhibition constant (Ki) at Histone deacetylase 1 came out at 2.4 µM; on Histone deacetylase 2, 1.4 µM; in experiment [2], 3 µM; in experiment [3] it was 4 µM; on Histone deacetylase 11, 6 µM; in experiment [4], 0.78 µM. Besides, the inhibition entry in experiment [5], in experiment [6], in experiment [7], in [8], in [9] and in experiment [10] was “inactive” each time. In addition, the inhibition entry in the experiment with EB-3 is “inactive”. Moreover, the GI50 in experiment [1] is above 50 µM.
For the compound `CCC(=O)CCCCC[C@@H]1NC(=O)[C@H]2CCCCN2C(=O)[C@H]([C@@H](C)CC)NC(=O)[C@H](Cc2cn(OC)c3ccccc23)NC1=O` [APICIDIN], the GI50 in [1] turned out to be 0.8 µM. In addition, the inhibition entry with EB-3 is “Active”.

The values above are taken from ChEMBL document CHEMBL3621147, “An azumamide C analogue without the zinc-binding functionality” (Medchemcomm, 2014).
